This is an account of results in patent publication US12404250B2, “PARP inhibitors for treating cancer and asthma” (Oregon Health & Science University, priority 2018, dated 2025).

The target of one experiment is PARP 2 (Homo sapiens, UniProt Q9UGN5). Description: In vitro IC50, PARP2. The class given is biochemical. The note with it: SEM from a minimum of three dose-response experiments.
A further experiment has as its target T1, PARP 3 (Homo sapiens, UniProt Q9Y6F1).
T1 sequence (Q9Y6F1 1-533): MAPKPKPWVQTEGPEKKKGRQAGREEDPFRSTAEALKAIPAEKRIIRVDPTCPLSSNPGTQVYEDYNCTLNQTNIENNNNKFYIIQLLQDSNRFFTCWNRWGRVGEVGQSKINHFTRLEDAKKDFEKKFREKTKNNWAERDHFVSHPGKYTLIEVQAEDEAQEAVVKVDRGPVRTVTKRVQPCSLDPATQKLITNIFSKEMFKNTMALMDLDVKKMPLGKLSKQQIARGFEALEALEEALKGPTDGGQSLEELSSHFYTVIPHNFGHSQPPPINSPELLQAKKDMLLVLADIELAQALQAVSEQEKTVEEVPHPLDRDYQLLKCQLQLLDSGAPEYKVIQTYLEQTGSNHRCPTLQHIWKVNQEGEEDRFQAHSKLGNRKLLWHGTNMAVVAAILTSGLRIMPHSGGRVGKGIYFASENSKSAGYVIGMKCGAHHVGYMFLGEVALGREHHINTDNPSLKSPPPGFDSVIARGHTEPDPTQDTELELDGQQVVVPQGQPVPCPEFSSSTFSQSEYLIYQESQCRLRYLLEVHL
Description: In vitro IC50, PARP3. The class given is biochemical. The note with it: SEM from a minimum of three dose-response experiments.

For another experiment, the target named is T2, PARP12 (Homo sapiens, UniProt Q9H0J9).
T2 construct: expressed in transfected cells; host or cells: HEK 293T
T2 sequence (Q9H0J9 1-701): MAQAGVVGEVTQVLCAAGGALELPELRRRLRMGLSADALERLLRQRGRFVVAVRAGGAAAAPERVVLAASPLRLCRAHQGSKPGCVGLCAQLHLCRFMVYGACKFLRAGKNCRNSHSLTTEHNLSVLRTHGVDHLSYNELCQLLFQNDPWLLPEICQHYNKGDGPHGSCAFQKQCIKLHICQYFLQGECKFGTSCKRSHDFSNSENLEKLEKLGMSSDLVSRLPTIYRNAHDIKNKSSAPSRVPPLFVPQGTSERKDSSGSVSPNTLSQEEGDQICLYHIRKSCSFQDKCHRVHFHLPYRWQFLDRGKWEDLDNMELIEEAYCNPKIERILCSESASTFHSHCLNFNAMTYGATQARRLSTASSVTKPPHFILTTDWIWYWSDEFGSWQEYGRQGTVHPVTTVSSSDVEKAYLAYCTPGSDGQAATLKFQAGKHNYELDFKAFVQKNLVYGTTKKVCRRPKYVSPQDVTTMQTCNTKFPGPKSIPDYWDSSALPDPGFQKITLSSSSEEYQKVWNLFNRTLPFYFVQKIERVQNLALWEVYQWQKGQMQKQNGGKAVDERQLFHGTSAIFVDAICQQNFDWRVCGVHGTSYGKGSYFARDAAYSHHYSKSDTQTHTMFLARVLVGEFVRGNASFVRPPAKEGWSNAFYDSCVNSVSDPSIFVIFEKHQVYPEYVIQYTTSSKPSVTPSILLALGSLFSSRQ
Briefly: In vitro IC50, immunoprecipitated GFP-PARP12 auto-MARylation. It counts as biochemical.

For the next experiment, the target named is T3, GFP-PARP11 (Homo sapiens, UniProt Q9NR21).
T3 construct: expressed in transfected cells; host or cells: HeLa
T3 sequence (Q9NR21 1-338): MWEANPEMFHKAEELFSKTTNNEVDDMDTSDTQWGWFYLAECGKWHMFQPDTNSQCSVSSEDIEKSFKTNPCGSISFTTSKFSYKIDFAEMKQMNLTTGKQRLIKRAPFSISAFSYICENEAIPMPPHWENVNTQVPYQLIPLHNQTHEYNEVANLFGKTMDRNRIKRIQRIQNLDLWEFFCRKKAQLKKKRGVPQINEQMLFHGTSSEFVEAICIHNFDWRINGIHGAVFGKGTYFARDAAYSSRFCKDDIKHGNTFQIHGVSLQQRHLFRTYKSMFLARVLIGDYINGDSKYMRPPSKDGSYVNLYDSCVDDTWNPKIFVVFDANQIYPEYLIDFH
Briefly: GFP-PARP11 localization at the nuclear envelope in HeLa cells. It counts as cell-based. The note with it: HeLa cells transfected with GFP-PARP11, 1 μM for 1 or 18 h. The method, then: FIGS. 5A and 5B depict dissociation from the nuclear envelope in HeLa cells following ITK7 (Example 7) treatment. […] HeLa cells were transfected with GFP-PARP11 grown on glass cover-slips. After ITK7 (1 μM) treatment for 1 or 18 h cells were fixed and mounted using mounting medium containing DAPI. Images were taken on the Olympus FLUOVIEW™ 2000 microscope using an 60x/NA 1.40 oil objective (scale bar 10 μm).
HeLa cells were transfected with GFP-PARP11 grown on glass cover-slips. After ITK7 (1 μM) treatment for 1 or 18 h cells were fixed and mounted using mounting medium containing DAPI. Images were taken on the Olympus FLUOVIEW™ 2000 microscope using an 60x/NA 1.40 oil objective (scale bar 10 μm).

pIC50: −log10 of the molar value.

Chain of PARP 2 (Q9UGN5 whole entry): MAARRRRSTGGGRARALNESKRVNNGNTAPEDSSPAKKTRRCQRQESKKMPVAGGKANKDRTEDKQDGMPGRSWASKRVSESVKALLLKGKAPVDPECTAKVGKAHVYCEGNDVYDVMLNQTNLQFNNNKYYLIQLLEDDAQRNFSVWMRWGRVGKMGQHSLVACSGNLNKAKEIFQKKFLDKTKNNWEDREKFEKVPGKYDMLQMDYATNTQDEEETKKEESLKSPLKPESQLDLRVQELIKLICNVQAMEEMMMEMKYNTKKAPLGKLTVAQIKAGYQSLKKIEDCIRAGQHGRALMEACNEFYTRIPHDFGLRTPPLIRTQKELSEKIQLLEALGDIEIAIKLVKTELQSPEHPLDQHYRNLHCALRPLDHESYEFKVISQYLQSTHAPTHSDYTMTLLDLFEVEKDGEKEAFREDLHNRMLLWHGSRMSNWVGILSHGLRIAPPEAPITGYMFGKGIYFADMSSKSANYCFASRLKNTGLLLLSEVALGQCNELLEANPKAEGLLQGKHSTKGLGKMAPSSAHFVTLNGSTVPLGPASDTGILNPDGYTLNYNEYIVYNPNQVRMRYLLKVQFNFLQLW
Description for PARP12: Auto-MARylation was analyzed by Western blot with an ADP-ribose (ADPr) binding reagent (uncropped blots shown below).

What is called pIC50 is −log10 of the IC50, conventionally taken in molar units. Read a high pIC50 as a low IC50. On to `CC#Cc1ccc2c(=O)[nH]c(CSc3ncccn3)nc2c1C` [ITK7, 8-methyl-7-(prop-1-yn-1-yl)-2-((pyrimidin-2-ylthio)methyl)quinazolin-4(3H)-one], for which the pIC50 against PARP 2 was < 4.52; on PARP 3, < 4.52; at PARP12 it was < 5.52. In addition, the “Dissociation of GFP-PARP11 from the nuclear envelope” value on GFP-PARP11 was “causes GFP-PARP11 to dissociate from the nuclear envelope”.
